The values below come from patent publication US20230391772A1, “METHODS AND COMPOSITIONS FOR TARGETED PROTEIN DEGRADATION” (Ranok Therapeutics (Hangzhou) Co. Ltd., priority 2020, published 2023).

The target of assay [1] is T1, KRAS(G12C) (Homo sapiens, UniProt P01116, G12C). As to the kind of experiment: KRAS(G12C)/SOS1 homogeneous time-resolved fluorescence (HTRF) assay. Also noted: purchased Cisbio 63ADK000CB16PEG. Particulars: absence of GTP, 4° C. for 3 hr, read-out: KRAS (G12C) binding. In outline: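 Three-hour incubation at 4 °C of 3-fold compound dilutions (lowest 1.02 nM) with KRAS(G12C), SOS1 and detection reagents, GTP absent. Disruption of the KRAS(G12C)/SOS1 complex detected by time-resolved fluorescence.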
In general terms: Time-resolved FRET reads energy transfer from a long-lived donor to a nearby acceptor.

For assay [2], the system named is MIA PaCa-2 human pancreatic carcinoma. As to the kind of experiment: MIA PaCa-2 CCK-8 proliferation assay. In kind it is cell-based. Particulars: Homo sapiens, MIA PaCa-2, 72 h, MIA PaCa-2 cells. The method in brief: (§1)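 MIA PaCa-2 (2 copies KRAS(G12C)), NCI-H358 and NCI-H23 (1 copy KRAS(G12C) each) were exposed to compound in 3-fold serial dilutions from 20 μM to 1.02 nM. Viability was read as CCK-8 absorbance, and % inhibition was computed against DMSO-treated cells, with cell-free DMSO medium as blank.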
(Formazan colour is commonly taken as a measure of viable cells.)

For assay [3], the system named is NCI-H358 human non-small cell lung cancer. In words: NCI-H358 CCK-8 proliferation assay. It counts as cell-based. Particulars: NCI-H358 cells, 72 hr. In outline: as §1
Another assay deals with T2, HSP90a protein (Homo sapiens, UniProt P07900).
T2 construct: purchased BPS Bioscience 50298
In words: HSP90α-binding fluorescent polarization (FP) assay, FITC-geldanamycin probe. The following applies: FP competition with FITC-geldanamycin, 5 nM, 120 min at 25° C. The method in brief:
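N-terminal HSP90a construct; tracer 5 nM final (FITC-geldanamycin or BODIPY-RNK04010, a labeled triazolone binder). Compounds 20 μM–5.2 nM, 2.5-fold steps. 25° C, 120 min (FITC) / 300 min (BODIPY). FP readout.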

Assay [4] addresses T1, KRAS(G12C). As to the kind of experiment: KRAS(G12C) Western blot protein degradation assay in MIA PaCa-2 cells. Also noted: host or cells: LU65A. It counts as cell-based. The following applies: 48 hr. Background: Immunoblotting shows a protein as a band on a membrane.

T1 sequence (P01116 1-188 isoform P01116-2 G12C): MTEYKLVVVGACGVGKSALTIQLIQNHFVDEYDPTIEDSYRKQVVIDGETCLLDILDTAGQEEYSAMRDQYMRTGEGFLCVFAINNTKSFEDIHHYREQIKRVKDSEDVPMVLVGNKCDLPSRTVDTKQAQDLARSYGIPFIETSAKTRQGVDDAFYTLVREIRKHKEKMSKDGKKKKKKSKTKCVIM

The EC50 is the concentration giving half of the maximal effect. A high value points to a need for much substance. Usually inhibition stands for the drop in the measured response relative to a control, in per cent. A lower inhibition goes with a response near the control. For the molecule `C=CC(=O)N1CCN(c2nc(OC[C@@H]3CCCN3C(=O)C3CCN(Cc4ccc(-n5c(O)nnc5-c5cc(C(C)C)c(O)cc5O)cc4)CC3)nc3c2CCN(c2cccc4cccc(Cl)c24)C3)C[C@@H]1CC#N` [Compound 139, 2-((S)-1-acryloyl-4-(7-(8-chloronaphthalen-1-yl)-2-(((S)-1-(1-(4-(3-(2,4-dihydroxy-5-isopropylphenyl)-5-hydroxy-4H-1,2,4-triazol-4-yl)benzyl)piperidine-4-carbonyl)pyrrolidin-2-yl)methoxy)-5,6,7,8-tetrahydropyrido[3,4-d]pyrimidin-4-yl)piperazin-2-yl)acetonitrile], the IC50 is more than 1 µM on KRAS(G12C) [1] and 0.1 to 1 µM on HSP90a protein. The EC50 was more than 1 µM in assay [2] and 0.1 to 1 µM in assay [3]. The molecule also registered an inhibition at 0.1562 µM on KRAS(G12C) [4] (156.2 nM) of less than 33%. The same molecule registered an inhibition at 0.3125 µM on KRAS(G12C) [4] (312.5 nM) of less than 33%. Also, the inhibition at 0.625 µM against KRAS(G12C) [4] (625 nM) is less than 33%. The same molecule registered an inhibition at 1.25 µM against KRAS(G12C) [4] (1250 nM) of less than 33%. On KRAS(G12C) [4] (2500 nM), the inhibition at 2.5 µM was less than 33%. The same molecule showed an inhibition at 5 µM against KRAS(G12C) [4] (5000 nM) of less than 33%. The same molecule returned an inhibition at 10 µM on KRAS(G12C) [4] (10,000 nM) of less than 33%.
